{
  "source": "patent US20250019371A1",
  "about": "“SMALL-MOLECULAR INHIBITORS FOR THE BETA-CATENIN/ B-CELL LYMPHOMA 9 PROTEIN-PROTEIN INTERACTION” (H. LEE MOFFITT CANCER CENTER AND RESEARCH INSTITUTE, INC., priority 2021, published 2025)",
  "key": {"[1]": {"test_system": "SW480", "experiment": "MTS cell viability assay, SW480", "type": "cell-based", "conditions": "Homo sapiens, 72 h, Wnt/β-catenin hyperactive, mean ± SD (n = 3)", "procedure": "(§1) MTS Cell Growth Inhibition Experiments. Colorectal cancer cells (SW480 and HCT116) and triple negative breast cancer cells (MDA-MB-231 and MDA-MB-468) were seeded in 96-well plates at 5×10^3 cells/well in DMEM with 10% FCS, maintained overnight at 37° C., and incubated with the tested compounds at various concentrations. Human mammary epithelial cell MCF10A were seeded in 96-well plates at 1×10^4 cells/well in MEGM (CC-3150, Lonza) with 100 ng/mL cholera toxin, maintained overnight at 37° C., and incubated with the tested compounds at various concentrations. Cell viability was monitored after 72 h using a freshly prepared mixture of 1 part phenazine methosulfate (PMS, Sigma) solution (0.92 mg/mL) and 19 parts 3-(4,5-dimethylthiazol-2-yl)-5-(3-carboxymethoxyphenyl)-2-(4-sulfophenyl)-2H-tetrazolium (MTS, Promega) solution (2 mg/mL). Cells were incubated in 10 μL of this solution at 37° C. for 3 h, and A490 was measured. […] Experiments were performed in triplicate."}, "[2]": {"biological_target": "T1, β-catenin/BCL9 PPI (Homo sapiens, UniProt P35222)", "T1 construct": "Full-length β-catenin (residues 1-781); host or cells: E. coli BL21 DE3", "T1 sequence (P35222 1-781)": "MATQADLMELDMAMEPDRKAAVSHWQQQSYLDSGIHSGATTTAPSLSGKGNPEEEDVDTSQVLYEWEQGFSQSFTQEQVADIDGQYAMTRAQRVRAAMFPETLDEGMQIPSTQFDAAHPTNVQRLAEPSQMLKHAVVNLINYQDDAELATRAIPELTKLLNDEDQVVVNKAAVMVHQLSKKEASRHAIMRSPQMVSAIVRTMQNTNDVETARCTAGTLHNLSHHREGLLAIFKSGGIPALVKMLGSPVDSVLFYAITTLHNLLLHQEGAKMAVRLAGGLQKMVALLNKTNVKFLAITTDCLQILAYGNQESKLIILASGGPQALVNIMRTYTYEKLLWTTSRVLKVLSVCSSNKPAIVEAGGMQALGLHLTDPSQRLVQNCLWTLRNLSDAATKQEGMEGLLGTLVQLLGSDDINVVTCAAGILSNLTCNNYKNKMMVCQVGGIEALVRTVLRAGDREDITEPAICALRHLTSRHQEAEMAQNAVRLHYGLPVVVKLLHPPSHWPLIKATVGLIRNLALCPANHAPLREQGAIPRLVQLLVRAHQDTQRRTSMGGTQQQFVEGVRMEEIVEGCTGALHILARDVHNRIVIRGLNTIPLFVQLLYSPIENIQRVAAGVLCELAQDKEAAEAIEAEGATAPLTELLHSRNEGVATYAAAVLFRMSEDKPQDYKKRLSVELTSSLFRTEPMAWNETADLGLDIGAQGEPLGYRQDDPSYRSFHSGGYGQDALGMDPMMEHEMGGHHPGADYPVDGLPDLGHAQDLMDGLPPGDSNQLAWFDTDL", "experiment": "AlphaScreen competitive inhibition assay of β-catenin/BCL9 PPI", "type": "binding", "procedure": "AlphaScreen Assays of β-Catenin and BCL9 Interaction. Experiments were performed in white opaque 384-well plates from PerkinElmer (Waltham, MA), and the samples were read on a Biotek Synergy 2 plate reader (Winooski, VT) with excitation at 680 nm and emission at 570 nm. The standard AlphaScreen protocol was used with a sensitivity setting of 200. All dilutions were made in 1x assay buffer containing 25 mM Hepes (pH 7.4), 100 mM NaCl, 0.01% Triton X-100 and 0.1% BSA to minimize nonspecific interactions.\nFor the β-catenin/BCL9 assay, 5 nM biotinylated BCL9, and 50 nM His6-tagged 8-catenin were incubated in assay buffer for 30 min. Different concentrations of the tested inhibitor were added and incubated in 20 μL assay buffer for another 1 h. All of the assay plates were covered and gently mixed on an orbital shaker. Donor and acceptor beads were then added to the plates to a final concentration of 10 μg/mL in 25 μL assay buffer. The mixture was incubated for 1 h before detection. The IC50 value was determined by nonlinear least-square analysis of GraphPad Prism 8.0. […] All of the experiments were performed in triplicate and carried out in the presence of 1% DMSO for small-molecule inhibitors. Each compound was assayed at least by three independent experiments. The results were expressed as mean±standard deviation."}, "[3]": {"test_system": "Wnt/β-catenin signaling (TOPFlash luciferase reporter)", "experiment": "TOPFlash luciferase reporter assay in SW480 cells", "type": "cell-based", "conditions": "Homo sapiens, 24 h", "procedure": "The suppressing effect of the inhibitors on transactivation of Wnt/β-catenin signaling was evaluated by the TOPFlash/FOPFlash luciferase reporter assay. In the TOPFlash assay, the luciferase reporter has three wild-type Tcf4 binding sites, while in the FOPFlash assay Tcf4 binding sites were mutated. These tandem Tcf binding sites controls the expression ratio of the firefly luciferase in TOPFlash/FOPFlash assays. The renilla luciferase reporter construct (pCMV-RL) was used as the internal control to normalize luciferase reporter signals and eliminate any possible systematic errors. […] This selectivity trend is consistent with that from MTS cell viability assays. Therefore, further cell-based studies were focused on compound 30.\nCell Transfection and Luciferase Assay. FuGENE6 (E269A, Promega) 96 well plate format was used for the transfection of SW480 cells according to the manufacturer's instruction. SW480 cells were co-transfected with 60 ng the TOPFlash or FOPFlash firefly luciferase reporter gene and 40 ng renilla luciferase pCMV-RL normalization reporter gene. Cells were cultured in DMEM and 10% FBS at 37° C. for 24 h, and different concentrations of inhibitors or DMSO was added. After 24 h, the luciferase reporter activity was measured using the Dual-Glo system (E2940, Promega). […]"}, "[4]": {"test_system": "MDA-MB-468", "experiment": "MTS cell viability assay, MDA-MB-468", "type": "cell-based", "conditions": "Homo sapiens, 72 h, Wnt/β-catenin hyperactive, mean ± SD (n = 3)", "procedure": "as §1"}, "[5]": {"test_system": "Axin2, cyclin D1 and LEF1 mRNA", "experiment": "qPCR of Wnt target genes in Wnt 3a-activated MDA-MB-231 cells", "type": "cell-based, human", "conditions": "24 h, HPRT spared", "procedure": "Quantitative Real Time PCR analysis. SW480 cells at 1×10^6 cells/mL were treated with inhibitors at different concentrations for 24 h. MDA-MB-231 cells at 1×10^6 cells/mL were treated with 100 ng/mL recombinant Wnt 3a (rmW3aL-010, Time BioScience) for 30 min, then the inhibitors at different concentration were added and incubated for 24 h. Total RNAs were extracted with TRIzol (15596026, Life Technologies), and the cDNA was synthesized with the superscript III first-strand kit (18080-051, Invitrogen). qPCR experiments were performed using the iQTM SYBR green supermix kit (170-8880, BIO-RAD) on an CFX96 Real Time System (BIO-RAD). The threshold cycle (CT) values were normalized to that of internal reference GAPDH. Experiments were performed in triplicate. The primer pairs are shown below"}},
  "note": "Read-outs that look alike come from different tables or passages of the source.",
  "data": [
    {"compound": "CC(C)(Oc1cccc(N2CCC[C@H](C(=O)N(Cc3ccc(-c4cccs4)cc3)C3CC3)C2)c1)C(=O)NS(=O)(=O)c1ccc(C#N)cc1", "note": "[Compound 30, (S)-((4-Cyanophenyl)sulfonyl) (2-(3-(3-(cyclopropyl(4-(thiophen-2-yl)benzyl)carbamoyl)piperidin-1-yl)phenoxy)-2-methylpropanoyl)amide]", "values": [
      {"measurement": "IC50", "setting": "[1]", "value": "16.3 ± 2.04", "unit": "µM"},
      {"measurement": "Ki", "setting": "[2]; AlphaScreen competitive inhibition assay, read-out: Ki for disruption of the β-catenin/BCL9 PPI", "value": 3.6, "unit": "µM"},
      {"measurement": "AlphaScreen inhibitory activity in words", "setting": "[2]; SAR comparison", "value": "slightly superior to R-isomer"},
      {"measurement": "IC50", "setting": "[2]; Table 2, AlphaScreen, inhibitors 27-30 (R- and S-isomers), preliminary", "value": "≤ 5", "unit": "µM"},
      {"measurement": "Ki", "setting": "[2]; Table 2, AlphaScreen, inhibitors 27-30 (R- and S-isomers), preliminary, read-out: Ki", "value": "≤ 5", "unit": "µM"},
      {"measurement": "IC50", "setting": "[3]", "value": 6.6, "unit": "µM"},
      {"measurement": "IC50", "setting": "[4]", "value": "17.8 ± 1.01", "unit": "µM"},
      {"measurement": "transcription of Wnt target genes Axin2, cyclin D1, LEF1 (qPCR)", "setting": "[5]", "value": "dose-dependently inhibited transcription of these Wnt target genes"}
    ]}
  ]
}
